# In patent publication US10485236B2, “Triazole derivatives, intermediates thereof and their use as fungicides” (Bayer CropScience Aktiengesellschaft, priority 2015, dated 2019):
# Tested on: Leptosphaeria nodorum
# Assay: Example J: in vivo preventive Leptosphaeria nodorum test (wheat)
# Settings: Parastagonospora nodorum, 192 h, 500 ppm of active ingredient, preventive spray, evaluated 8 days after inoculation, read-out: efficacy
# Method: Example J: In Vivo Preventive Leptosphaeria nodorum Test (Wheat) [table] To produce a suitable preparation of active compound, 1 part by weight of active compound or active compound combination is mixed with the stated amounts of solvent and emulsifier, and the concentrate is diluted with water to the desired concentration. To test for preventive activity, young plants are sprayed with the preparation of active compound or active compound combination at the stated rate of application. After the spray coating has been dried, the plants are sprayed with a spore suspension of Leptosphaeria nodorum. The plants remain for 48 hours in an incubation cabinet at approximately 20° C. and a relative atmospheric humidity of approximately 100%. The plants are placed in the greenhouse at a temperature of approximately 25° C. and a relative atmospheric humidity of approximately 80%. The test is evaluated 8 days after the inoculation. 0% means an efficacy which corresponds to that of the untreated control, while an efficacy of 100% means that no disease is observed.
row,SMILES,pest or weed control at 500 ppm
1,"O=C(Cn1cncn1)c1ccc(Oc2ccc(Cl)cc2)nc1C(F)(F)F [VII.01, 1-[6-(4-chlorophenoxy)-2-(trifluoromethyl)-3-pyridyl]-2-(1,2,4-triazol-1-yl)ethanone]",90 to 100%
2,CC(O)(Cn1cncn1)c1cnc(Oc2ccccc2)cc1Cl (centres unmarked) [I.05],80 to 89%
3,CC(O)(Cn1cncn1)c1ccc(Oc2ccc(S(F)(F)(F)(F)F)cc2)nc1Cl (centres unmarked) [I.35],80 to 89%
4,C[C@@](O)(Cn1cncn1)c1cnc(Oc2ccc(Cl)cc2)cc1C(F)(F)F [I.45],90 to 100%
5,"CC(O)(Cn1cncn1)c1cnc(Oc2ccc(Cl)cc2)cc1C(F)(F)F (centres unmarked) [I.02, 2-[6-(4-chlorophenoxy)-4-(trifluoromethyl)-3-pyridyl]-1-(1,2,4-triazol-1-yl)propan-2-ol]",90 to 100%
6,OC(Cn1cncn1)c1cnc(Oc2ccc(C(F)(F)F)cc2)cc1C(F)(F)F (centres unmarked) [I.47],90 to 100%
7,OC(Cn1cncn1)c1ccc(Oc2ccc(Cl)cc2)nc1Cl (centres unmarked) [I.14],70 to 79%
8,"OC(Cn1cncn1)c1ccc(Oc2ccc(Cl)cc2)nc1C(F)(F)F (centres unmarked) [I.03, 1-[6-(4-chlorophenoxy)-2-(trifluoromethyl)-3-pyridyl]-2-(1,2,4-triazol-1-yl)ethanol]",80 to 89%
9,CC(O)(Cn1cncn1)c1ccc(Oc2ccc(C(F)F)cc2)nc1Cl (centres unmarked) [I.39],70 to 79%
10,"CC(O)(Cn1cncn1)c1ccc(Oc2ccc(Cl)cc2)nc1C(F)(F)F (centres unmarked) [I.01, 2-[6-(4-chlorophenoxy)-2-(trifluoromethyl)-3-pyridyl]-1-(1,2,4-triazol-1-yl)propan-2-ol]",90 to 100%
11,OC(Cn1cncn1)c1cnc(Oc2ccc(S(F)(F)(F)(F)F)cc2)cc1C(F)(F)F (centres unmarked) [I.36],90 to 100%
